What follows are compounds tested against T1, Tyrosinase (Agaricus bisporus, UniProt O42713) (assay: Inhibition of mushroom tyrosinase using L-tyrosine as substrate by Dixon plot analysis).
T1 sequence (O42713 whole entry): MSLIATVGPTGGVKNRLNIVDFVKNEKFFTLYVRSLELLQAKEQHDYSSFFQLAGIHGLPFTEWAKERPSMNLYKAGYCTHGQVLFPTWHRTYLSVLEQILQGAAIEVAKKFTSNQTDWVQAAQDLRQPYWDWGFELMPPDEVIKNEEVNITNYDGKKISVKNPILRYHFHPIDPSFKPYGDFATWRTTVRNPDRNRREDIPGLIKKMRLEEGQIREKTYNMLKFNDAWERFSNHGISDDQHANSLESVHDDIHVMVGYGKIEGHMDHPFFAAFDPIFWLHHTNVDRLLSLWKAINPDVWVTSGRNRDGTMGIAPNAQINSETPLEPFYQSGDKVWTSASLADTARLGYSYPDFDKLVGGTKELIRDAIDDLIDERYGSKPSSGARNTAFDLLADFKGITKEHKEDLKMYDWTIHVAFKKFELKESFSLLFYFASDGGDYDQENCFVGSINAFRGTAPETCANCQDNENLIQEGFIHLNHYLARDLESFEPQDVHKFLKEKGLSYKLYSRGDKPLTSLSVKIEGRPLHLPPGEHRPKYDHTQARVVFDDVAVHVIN
Compound `COc1cc2c(c(OC)c1OC)[C@@H]1O[C@H](COC(=O)c3ccc(O)c(O)c3)[C@@H](O)[C@H](O)[C@H]1OC2=O` has a Ki of 4.5 µM.
For `COc1cc2c(c(OC)c1OC)[C@@H]1O[C@H](COC(=O)c3ccc(O)cc3)[C@@H](O)[C@H](O)[C@H]1OC2=O`, the Ki was 74.8 µM.

The compounds below were run against T1, Tyrosinase (assay: Uncompetitive inhibition of mushroom tyrosinase using L-tyrosine as substrate by Dixon/Cornish-Bowden plot analysis).
For `COc1ccc(C(=O)OC[C@H]2O[C@H]3c4c(cc(OC)c(OC)c4OC)C(=O)O[C@@H]3[C@@H](O)[C@@H]2O)cc1O`, the Ki was 107 µM.

What follows are compounds tested against T1, Tyrosinase (assay: Mixed inhibition of mushroom tyrosinase using L-tyrosine as substrate by Dixon/Cornish-Bowden plot analysis).
Compound `COc1cc2c(c(OC)c1OC)[C@@H]1O[C@H](COC(=O)c3ccc(O)c(O)c3)[C@@H](O)[C@H](O)[C@H]1OC2=O` has a Ki of 7.3 µM.
In the case of `COc1cc2c(c(OC)c1OC)[C@@H]1O[C@H](COC(=O)c3ccc(O)cc3)[C@@H](O)[C@H](O)[C@H]1OC2=O`, the Ki is reported as 121 µM.

The compounds below were run against T1, Tyrosinase.
Description: (§1) Inhibition of mushroom tyrosinase using L-tyrosine as substrate preincubated for 10 mins followed by enzyme addition measured after 20 mins by microplate reader analysis
`COc1cc(C(=O)OC[C@H]2O[C@H]3c4c(cc(OC)c(OC)c4OC)C(=O)O[C@@H]3[C@@H](O)[C@@H]2O)cc(OC)c1O` was tested, and the IC50 was over 100 µM.
In the case of `O=C(O)c1ccc(O)c(O)c1` [PROTOCATECHUIC ACID], the IC50 is reported as over 100 µM.
`COc1ccc(C(=O)OC[C@H]2O[C@H]3c4c(cc(OC)c(OC)c4OC)C(=O)O[C@@H]3[C@@H](O)[C@@H]2O)cc1O` showed an IC50 of 38.8 µM.
With `COc1cc(OC)cc(C(=O)O)c1` [3,5-DIMETHOXYBENZOIC ACID] the IC50 was over 100 µM.
`O=C(O)c1ccccc1` [BENZOIC ACID] showed an IC50 of over 100 µM.
Work on `COc1ccc(C(=O)O)cc1O` [ISOVANILLIC ACID] yielded an IC50 of over 100 µM.
`COc1cc(OC)cc(C(=O)OC[C@H]2O[C@H]3c4c(cc(OC)c(OC)c4OC)C(=O)O[C@@H]3[C@@H](O)[C@@H]2O)c1` was tested, and the IC50 was over 100 µM.
`COc1cc(C(=O)O)cc(OC)c1O` [SYRINGIC ACID] was tested, and the IC50 was over 100 µM.
In the case of `O=C(O)c1ccc(O)cc1` [PARABEN], the IC50 is reported as over 100 µM.
`COc1ccc(C(=O)O)cc1OC` [VERATRIC ACID] was tested, and the IC50 was over 100 µM.
`COc1cc2c(c(OC)c1OC)[C@@H]1O[C@H](COC(=O)c3ccccc3)[C@@H](O)[C@H](O)[C@H]1OC2=O` showed an IC50 of over 100 µM.
`COc1ccc(C(=O)O)cc1` [p-ANISIC ACID] showed an IC50 of over 100 µM.
`COc1cc2c(c(OC)c1OC)[C@@H]1O[C@H](COC(=O)c3ccc(O)c(O)c3)[C@@H](O)[C@H](O)[C@H]1OC2=O` gave an IC50 of 9.1 µM.
`COc1cc(C(=O)OC[C@H]2O[C@H]3c4c(cc(OC)c(OC)c4OC)C(=O)O[C@@H]3[C@@H](O)[C@@H]2O)ccc1O` was tested, and the IC50 was over 100 µM.
For `COc1cc2c(c(OC)c1OC)[C@H]1O[C@@H](CO)[C@H](O)[C@@H](O)[C@@H]1OC2=O`, the IC50 was over 100 µM.
Work on `COc1cc2c(c(OC)c1OC)[C@@H]1O[C@H](COC(=O)c3ccc(O)cc3)[C@@H](O)[C@H](O)[C@H]1OC2=O` yielded an IC50 of 31.5 µM.
`COc1ccc(C(=O)OC[C@H]2O[C@H]3c4c(cc(OC)c(OC)c4OC)C(=O)O[C@@H]3[C@@H](O)[C@@H]2O)cc1` showed an IC50 of over 100 µM.
Work on `COc1c(O)cc2c(c1O)[C@@H]1O[C@H](CO)[C@@H](O)[C@H](O)[C@H]1OC2=O` [BERGENIN] yielded an IC50 of over 100 µM.
Work on `COc1c(O)cc2c(c1O)[C@@H]1O[C@H](COC(=O)c3ccc(O)c(O)c3)[C@@H](O)[C@H](O)[C@H]1OC2=O` yielded an IC50 of 17.5 µM.
With `COc1ccc(C(=O)OC[C@H]2O[C@H]3c4c(cc(OC)c(OC)c4OC)C(=O)O[C@@H]3[C@@H](O)[C@@H]2O)cc1OC` the IC50 was over 100 µM.

What follows are compounds tested against T2, Tyrosinase (Agaricus bisporus) (UniProt O42713).
T2 sequence (whole entry): T1 sequence (O42713 whole entry)
Description: as §1
In the case of `COc1ccc(C(=O)OC[C@H]2O[C@H]3c4c(cc(OC)c(OC)c4OC)C(=O)O[C@@H]3[C@@H](O)[C@@H]2O)cc1O`, the inhibition is reported as “Dose-dependent effect”.
With `COc1cc2c(c(OC)c1OC)[C@@H]1O[C@H](COC(=O)c3ccc(O)c(O)c3)[C@@H](O)[C@H](O)[C@H]1OC2=O` the inhibition was “Dose-dependent effect”.
In the case of `COc1cc2c(c(OC)c1OC)[C@@H]1O[C@H](COC(=O)c3ccc(O)cc3)[C@@H](O)[C@H](O)[C@H]1OC2=O`, the inhibition is reported as “Dose-dependent effect”.
